Results as given in patent EP0034120A1, “Derivatives of phenoxy-phenoxy-carboxylic acids” (CIBA-GEIGY AG, priority 1980, dated 1981).

Experiments:
Format in all cases: in vivo
Design in all cases: key: 1 Pflanze abgestorben; 2-4 schwere Schädigung; 3: 2-4 schwere Schädigung; 2-4 schwere Schädigung; 5, 6 mittlere Schäden; 5, 6 mittlere Schäden; 7, 8 leichte Schäden; 7, 8 leichte Schäden; 9 Pflanze gedeiht normal, wie unbehandelte Kontrollpflanze
[1] = test system: Rotala indica; test: Selective herbicidal action in rice, post-emergence (flooded trays); settings: applied into paddy water, evaluated after 4 weeks
Procedure: (§1) Reispflänzchen, welche 25 Tage alt sind, wurden im Gewächshaus in grosse rechtackige Eternitschalen vergflanzt. Zwischen die Reiben der Reispfianzon wurden dann Samen der in Reiskulturen vorkommanden Unkräuter Echinochloa crus galli, Cyperus difformis, ? und Rotala gesät. Die Schalen wurden gut bewässert und bei einer Temperatur von ca. 25°C und hoher Luftfeuchtigkeit gehalten. Nach 12 Tagen, wenn die Unkräuter aufgelaufen sind und das 2-3 Blattstadium erreicht haben, wurde die Erde in der Schale mit einer 2,5 cm hohen Schicht Wasser bedeckt. Die Verbindung No. 2 wurde denn als Emulsionskonzentrat mittels einer-Pipette zwischen die Pflanzenreihen appliziert, wobei man das Emulsionskonzentrat so verdünnte und auftrug, dass es einer Applikationsmenge im Feld von 2 und 1 kg Wirkstoff pro Hektar entsprach. Der Versuch wurde nach 4 Wochen ausgewertat.

[2] = test system: Echinochloa crus galli; test: as above; settings: applied into paddy water, evaluated after 4 weeks
Procedure: as §1

[3] = test system: Cyperus difformis; test: as above; settings: applied into paddy water, evaluated after 4 weeks
Procedure: as §1

[4] = test system: Ammania indica; test: as above; settings: applied into paddy water, evaluated after 4 weeks
Procedure: as §1

[5] = test system: Reis; test: as above; settings: applied as emulsion concentrate into paddy water, evaluated after 4 weeks
Procedure: as §1

[6] = test system: abutilon sp; test: Herbicidal action, pre-emergent application (greenhouse); settings: after 3 weeks
Procedure: (§2) wurde durchfolgende Versuche ermittelt: Herbizide Wirkung bei Applikation der Wirkstoffe vor dem Auflaufen der Pflanzen (pre-emergent) Im Gewächshaus werden Pflanzensamen in Blumentöpfe von ca. 11 cm Durchmesser gesät. […] Die Töpfe werden dann im Gewächshaus unter optimalen Bedingungen für das Pflanzenwachstum, regelmässiges Bewässern, einer Temperatur von 22-25°C und 50-70% relativer Luftfeuchtigkeit gehalten. Der Versuch wird nach 3 Wochen abgebrochen und der Zustand der Pflanzen gemäss dem folgenden EWRC (European Weed Research Councel) Bewertungsschema registriert: • 1 Pflanze abgestorben • 2-4 schwere Schädigung • 5, 6 mittlere Schäden • 7, 8 leichte Schäden • 9 Pflanze gedeiht normal, wie unbehandelte Kontrollpflanze.

[7] = test system: viola tricolor; test: as above; settings: after 3 weeks
Procedure: as §2

[8] = test system: beta vulgaris; test: as above; settings: after 3 weeks
Procedure: as §2

[9] = test system: sinapis alba; test: as above; settings: after 3 weeks
Procedure: as §2

[10] = test system: Weizen; test: as above; settings: after 3 weeks
Procedure: as §2

[11] = test system: chenopodium sp.; test: as above; settings: after 3 weeks
Procedure: as §2

[12] = test system: amarantus retrofl.; test: as above; settings: after 3 weeks
Procedure: as §2

[13] = test system: Reis; test: as above; settings: after 3 weeks
Procedure: as §2

[14] = test system: chrysanthemum l.; test: as above; settings: after 3 weeks
Procedure: as §2

CCOC(=O)CCC(C)Oc1cc(Oc2ccc(C(F)(F)F)cc2Cl)ccc1Cl (stereo not shown) [Verbindung No. 2, 4-[3'-(2"-Chlor-4-trifluormethylphenoxy)-6'-chlorphenoxy]-valeriansäure-äthylester]
Selektive herbizide Wirkung (rating) ([1]; 1 kg/ha): 4
Selektive herbizide Wirkung (rating) ([1]; 2 kg/ha): 3
Selektive herbizide Wirkung (rating) ([2]; 1 kg/ha): 4
Selektive herbizide Wirkung (rating) ([2]; 2 kg/ha): 3
Selektive herbizide Wirkung (rating) ([3]; 1 kg/ha): 5
Selektive herbizide Wirkung (rating) ([3]; 2 kg/ha): 3
Selektive herbizide Wirkung (rating) ([4]; 1 kg/ha): 3
Selektive herbizide Wirkung (rating) ([4]; 2 kg/ha): 1
Selektive herbizide Wirkung (rating) ([5]; 1 kg/ha): 7
Selektive herbizide Wirkung (rating) ([5]; 2 kg/ha): 7
Zustand der Pflanzen (EWRC Bewertungsschema) ([6]; Aufwandmenge 2 kg/ha): 5
Zustand der Pflanzen (EWRC Bewertungsschema) ([6]; Aufwandmenge 4 kg/ha): 1
Zustand der Pflanzen (EWRC Bewertungsschema) ([7]; Aufwandmenge 2 kg/ha): 2
Zustand der Pflanzen (EWRC Bewertungsschema) ([7]; Aufwandmenge 4 kg/ha): 1
Zustand der Pflanzen (EWRC Bewertungsschema) ([8]; Aufwandmenge 2 kg/ha): 3
Zustand der Pflanzen (EWRC Bewertungsschema) ([8]; Aufwandmenge 4 kg/ha): 1
Zustand der Pflanzen (EWRC Bewertungsschema) ([9]; Aufwandmenge 2 kg/ha): 1
Zustand der Pflanzen (EWRC Bewertungsschema) ([9]; Aufwandmenge 4 kg/ha): 1
Zustand der Pflanzen (EWRC Bewertungsschema) ([10]; Aufwandmenge 2 kg/ha): 9
Zustand der Pflanzen (EWRC Bewertungsschema) ([10]; Aufwandmenge 4 kg/ha): 9
Zustand der Pflanzen (EWRC Bewertungsschema) ([11]; Aufwandmenge 2 kg/ha): 2
Zustand der Pflanzen (EWRC Bewertungsschema) ([11]; Aufwandmenge 4 kg/ha): 1
Zustand der Pflanzen (EWRC Bewertungsschema) ([12]; Aufwandmenge 2 kg/ha): 1
Zustand der Pflanzen (EWRC Bewertungsschema) ([12]; Aufwandmenge 4 kg/ha): 1
Zustand der Pflanzen (EWRC Bewertungsschema) ([13]; Aufwandmenge 2 kg/ha): 9
Zustand der Pflanzen (EWRC Bewertungsschema) ([13]; Aufwandmenge 4 kg/ha): 9
Zustand der Pflanzen (EWRC Bewertungsschema) ([14]; Aufwandmenge 2 kg/ha): 1
Zustand der Pflanzen (EWRC Bewertungsschema) ([14]; Aufwandmenge 4 kg/ha): 1
